Results taken from ChEMBL document CHEMBL5678818, “Discovery of potent SOS1 inhibitors that block RAS activation via disruption of the RAS-SOS1 interaction” (Proc Natl Acad Sci U S A, 2019).

Key:
[1] = target: LIM domain kinase 2 (Homo sapiens) (UniProt P53671); experiment: Inhibition of LIMK2 (unknown origin) assessed as residual activity at 1000 nM by KINOMEscan analysis relative to control
[2] = target: cAMP-dependent protein kinase catalytic subunit beta (Homo sapiens) (UniProt P22694); experiment: Inhibition of PKAC-beta (unknown origin) assessed as residual activity at 1000 nM by KINOMEscan analysis relative to control
[3] = target: T1, Tyrosine-protein kinase JAK3 (Homo sapiens) (UniProt P52333); experiment: Inhibition of JAK3 JH1 catalytic domain (unknown origin) assessed as residual activity at 1000 nM by KINOMEscan analysis relative to control
T1 sequence (whole entry): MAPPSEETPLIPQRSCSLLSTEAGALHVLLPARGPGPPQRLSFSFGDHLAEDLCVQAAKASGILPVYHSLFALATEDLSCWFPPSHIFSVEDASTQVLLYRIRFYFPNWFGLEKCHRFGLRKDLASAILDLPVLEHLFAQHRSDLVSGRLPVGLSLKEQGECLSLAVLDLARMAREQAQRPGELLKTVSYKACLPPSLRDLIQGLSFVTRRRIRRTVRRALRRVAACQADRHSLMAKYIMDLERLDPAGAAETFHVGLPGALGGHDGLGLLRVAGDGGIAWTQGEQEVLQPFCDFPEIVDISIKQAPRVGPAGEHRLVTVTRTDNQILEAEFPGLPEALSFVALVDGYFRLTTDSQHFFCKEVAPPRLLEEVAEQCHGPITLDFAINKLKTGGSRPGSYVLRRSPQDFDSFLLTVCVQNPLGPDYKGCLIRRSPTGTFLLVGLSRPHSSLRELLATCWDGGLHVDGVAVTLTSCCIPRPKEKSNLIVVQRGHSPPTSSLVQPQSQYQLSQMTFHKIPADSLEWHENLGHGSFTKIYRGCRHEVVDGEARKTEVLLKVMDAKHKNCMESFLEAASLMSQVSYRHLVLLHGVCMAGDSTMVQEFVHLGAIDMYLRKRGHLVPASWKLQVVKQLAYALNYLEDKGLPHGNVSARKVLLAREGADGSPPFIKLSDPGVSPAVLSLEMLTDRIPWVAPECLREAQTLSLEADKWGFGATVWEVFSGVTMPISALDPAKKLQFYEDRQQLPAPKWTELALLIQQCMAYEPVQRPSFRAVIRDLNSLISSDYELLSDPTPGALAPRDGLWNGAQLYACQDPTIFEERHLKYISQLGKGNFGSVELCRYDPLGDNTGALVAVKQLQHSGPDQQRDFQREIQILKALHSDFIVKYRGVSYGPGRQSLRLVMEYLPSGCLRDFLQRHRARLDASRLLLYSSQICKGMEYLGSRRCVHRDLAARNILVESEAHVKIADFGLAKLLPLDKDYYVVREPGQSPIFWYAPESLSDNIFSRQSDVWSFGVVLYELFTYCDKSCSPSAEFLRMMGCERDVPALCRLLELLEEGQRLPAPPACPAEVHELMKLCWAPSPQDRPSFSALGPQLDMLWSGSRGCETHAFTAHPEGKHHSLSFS

[4] = target: Serine/threonine-protein kinase PLK2 (Homo sapiens) (UniProt Q9NYY3); experiment: Inhibition of PLK2 (unknown origin) assessed as residual activity at 1000 nM by KINOMEscan analysis relative to control
[5] = target: T2, Ephrin type-A receptor 6 (Homo sapiens) (UniProt Q9UF33); experiment: Inhibition of EPHA6 (unknown origin) assessed as residual activity at 1000 nM by KINOMEscan analysis relative to control
T2 sequence (whole entry): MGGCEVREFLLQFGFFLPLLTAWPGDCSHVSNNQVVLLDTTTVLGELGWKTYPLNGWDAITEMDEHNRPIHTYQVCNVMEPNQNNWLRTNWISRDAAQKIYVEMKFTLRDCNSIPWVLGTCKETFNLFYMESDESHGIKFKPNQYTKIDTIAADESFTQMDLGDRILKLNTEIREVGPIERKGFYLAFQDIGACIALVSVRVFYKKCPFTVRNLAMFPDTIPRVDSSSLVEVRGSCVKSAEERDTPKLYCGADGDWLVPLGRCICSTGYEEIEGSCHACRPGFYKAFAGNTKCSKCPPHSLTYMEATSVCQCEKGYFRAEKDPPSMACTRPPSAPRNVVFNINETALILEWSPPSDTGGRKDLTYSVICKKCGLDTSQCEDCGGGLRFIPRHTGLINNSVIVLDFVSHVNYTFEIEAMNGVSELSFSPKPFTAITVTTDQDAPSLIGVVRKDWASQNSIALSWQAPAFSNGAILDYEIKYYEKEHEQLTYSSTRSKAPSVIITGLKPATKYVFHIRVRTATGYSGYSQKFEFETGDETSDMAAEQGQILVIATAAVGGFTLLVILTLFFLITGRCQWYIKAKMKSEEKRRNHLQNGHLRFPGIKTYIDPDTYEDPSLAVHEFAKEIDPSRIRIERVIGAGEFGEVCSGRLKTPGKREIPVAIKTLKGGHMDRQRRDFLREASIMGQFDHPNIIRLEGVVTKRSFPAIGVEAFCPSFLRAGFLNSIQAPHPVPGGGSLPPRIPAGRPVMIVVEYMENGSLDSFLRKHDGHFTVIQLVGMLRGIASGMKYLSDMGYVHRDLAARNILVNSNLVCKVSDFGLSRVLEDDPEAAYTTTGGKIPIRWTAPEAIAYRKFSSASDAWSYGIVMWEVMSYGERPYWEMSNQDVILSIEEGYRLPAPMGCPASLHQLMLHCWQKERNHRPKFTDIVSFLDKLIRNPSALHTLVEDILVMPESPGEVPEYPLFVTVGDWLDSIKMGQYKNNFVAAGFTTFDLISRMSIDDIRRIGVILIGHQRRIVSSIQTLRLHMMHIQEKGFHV

[6] = target: Vascular endothelial growth factor receptor 3 (Homo sapiens) (UniProt P35916); experiment: Inhibition of FLT4 (unknown origin) assessed as residual activity at 100 nM by KINOMEscan analysis relative to control
[7] = target: Cyclin-dependent kinase 3 (Homo sapiens) (UniProt Q00526); experiment: Inhibition of CDK3 (unknown origin) assessed as residual activity at 100 nM by KINOMEscan analysis relative to control
[8] = test system: Hepatocyte growth factor receptor (Homo sapiens), P08581 [M1250T]; experiment: Inhibition of MET M1250T mutant (unknown origin) assessed as residual activity at 100 nM by KINOMEscan analysis relative to control

Chain of Serine/threonine-protein kinase PLK2 (Homo sapiens) (Q9NYY3 whole entry, looked up): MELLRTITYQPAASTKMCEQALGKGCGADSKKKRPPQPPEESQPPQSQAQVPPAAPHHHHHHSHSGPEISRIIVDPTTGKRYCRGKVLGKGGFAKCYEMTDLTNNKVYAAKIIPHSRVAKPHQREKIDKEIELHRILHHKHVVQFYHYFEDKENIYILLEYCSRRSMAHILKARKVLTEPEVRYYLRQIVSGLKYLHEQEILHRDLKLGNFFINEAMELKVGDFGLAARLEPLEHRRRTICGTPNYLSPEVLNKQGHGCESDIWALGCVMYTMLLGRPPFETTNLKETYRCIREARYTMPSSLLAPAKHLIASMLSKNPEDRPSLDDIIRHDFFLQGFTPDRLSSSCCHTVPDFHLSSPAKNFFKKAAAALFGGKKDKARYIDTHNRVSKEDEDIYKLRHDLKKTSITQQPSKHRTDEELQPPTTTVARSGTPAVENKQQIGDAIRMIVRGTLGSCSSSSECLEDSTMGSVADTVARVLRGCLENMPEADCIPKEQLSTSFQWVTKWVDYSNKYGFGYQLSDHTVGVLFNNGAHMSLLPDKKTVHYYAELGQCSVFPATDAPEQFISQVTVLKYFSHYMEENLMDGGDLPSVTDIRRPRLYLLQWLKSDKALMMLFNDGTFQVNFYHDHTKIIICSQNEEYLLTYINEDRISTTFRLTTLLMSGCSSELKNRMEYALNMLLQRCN
Chain of LIM domain kinase 2 (Homo sapiens) (P53671 whole entry, looked up, the tested form may be a part): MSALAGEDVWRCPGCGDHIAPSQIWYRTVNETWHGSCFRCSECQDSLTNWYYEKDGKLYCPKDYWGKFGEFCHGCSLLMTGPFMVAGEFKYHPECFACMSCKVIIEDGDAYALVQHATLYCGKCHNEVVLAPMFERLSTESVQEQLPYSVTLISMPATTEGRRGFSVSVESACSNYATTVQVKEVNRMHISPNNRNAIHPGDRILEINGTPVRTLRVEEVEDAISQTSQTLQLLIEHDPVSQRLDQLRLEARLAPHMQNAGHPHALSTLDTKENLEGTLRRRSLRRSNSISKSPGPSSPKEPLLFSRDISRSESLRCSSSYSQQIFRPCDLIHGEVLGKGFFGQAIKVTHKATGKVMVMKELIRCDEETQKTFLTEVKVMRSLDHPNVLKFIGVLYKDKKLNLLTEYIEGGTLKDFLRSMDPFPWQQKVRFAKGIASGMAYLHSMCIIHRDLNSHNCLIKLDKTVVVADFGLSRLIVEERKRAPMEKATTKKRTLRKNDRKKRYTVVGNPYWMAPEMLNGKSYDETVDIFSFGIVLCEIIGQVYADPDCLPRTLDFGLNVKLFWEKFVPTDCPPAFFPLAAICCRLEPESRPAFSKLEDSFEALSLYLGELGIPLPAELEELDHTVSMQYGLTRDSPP
Chain of Cyclin-dependent kinase 3 (Homo sapiens) (Q00526 whole entry, looked up): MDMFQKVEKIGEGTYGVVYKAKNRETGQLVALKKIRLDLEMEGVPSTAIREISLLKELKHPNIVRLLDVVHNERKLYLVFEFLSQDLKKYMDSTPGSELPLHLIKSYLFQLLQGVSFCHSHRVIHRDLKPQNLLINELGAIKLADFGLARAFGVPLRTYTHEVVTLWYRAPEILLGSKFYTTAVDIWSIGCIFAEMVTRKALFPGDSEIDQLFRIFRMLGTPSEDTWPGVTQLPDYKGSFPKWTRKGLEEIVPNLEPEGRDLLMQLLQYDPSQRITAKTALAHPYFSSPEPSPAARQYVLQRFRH
Chain of Vascular endothelial growth factor receptor 3 (Homo sapiens) (P35916 whole entry): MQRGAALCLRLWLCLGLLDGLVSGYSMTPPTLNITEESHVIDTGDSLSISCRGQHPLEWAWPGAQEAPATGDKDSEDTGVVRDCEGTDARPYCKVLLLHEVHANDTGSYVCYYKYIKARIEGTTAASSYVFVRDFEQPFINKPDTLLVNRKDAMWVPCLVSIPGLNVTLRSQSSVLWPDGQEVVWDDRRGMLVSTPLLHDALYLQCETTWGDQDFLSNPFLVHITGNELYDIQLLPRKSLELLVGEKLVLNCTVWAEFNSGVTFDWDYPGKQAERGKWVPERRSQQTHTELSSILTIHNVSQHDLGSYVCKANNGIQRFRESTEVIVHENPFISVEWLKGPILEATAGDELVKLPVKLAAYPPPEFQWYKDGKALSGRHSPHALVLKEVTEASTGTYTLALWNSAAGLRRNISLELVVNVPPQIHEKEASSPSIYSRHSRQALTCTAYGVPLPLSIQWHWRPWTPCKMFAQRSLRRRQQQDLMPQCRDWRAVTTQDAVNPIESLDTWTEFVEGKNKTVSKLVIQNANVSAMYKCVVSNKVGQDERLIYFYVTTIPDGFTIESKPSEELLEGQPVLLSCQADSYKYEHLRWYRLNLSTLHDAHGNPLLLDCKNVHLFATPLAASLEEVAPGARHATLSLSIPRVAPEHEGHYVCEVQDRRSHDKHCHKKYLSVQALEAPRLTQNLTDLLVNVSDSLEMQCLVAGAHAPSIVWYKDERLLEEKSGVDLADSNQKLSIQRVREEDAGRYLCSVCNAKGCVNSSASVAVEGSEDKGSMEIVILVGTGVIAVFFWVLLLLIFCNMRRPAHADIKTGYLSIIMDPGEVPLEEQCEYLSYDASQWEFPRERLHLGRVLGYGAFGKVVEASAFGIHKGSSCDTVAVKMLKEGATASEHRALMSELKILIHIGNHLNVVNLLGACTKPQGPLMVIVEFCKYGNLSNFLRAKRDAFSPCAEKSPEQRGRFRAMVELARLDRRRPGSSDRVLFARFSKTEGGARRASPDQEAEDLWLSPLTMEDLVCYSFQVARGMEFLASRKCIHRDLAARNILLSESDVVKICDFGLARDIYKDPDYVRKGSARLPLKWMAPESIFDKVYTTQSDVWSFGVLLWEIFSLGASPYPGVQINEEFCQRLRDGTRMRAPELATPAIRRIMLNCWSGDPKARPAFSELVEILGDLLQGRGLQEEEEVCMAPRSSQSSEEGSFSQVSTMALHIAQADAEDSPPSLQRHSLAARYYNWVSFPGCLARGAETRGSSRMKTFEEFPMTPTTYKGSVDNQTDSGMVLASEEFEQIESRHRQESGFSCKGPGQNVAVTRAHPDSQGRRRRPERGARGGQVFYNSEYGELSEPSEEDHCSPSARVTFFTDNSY

| SMILES | Activity [1] | Activity [2] | Activity [3] | Activity [4] | Activity [5] | Activity [6] | Activity [7] | Activity [8] |
| --- | --- | --- | --- | --- | --- | --- | --- | --- |
| COc1cc2nc(C)nc(N[C@H](C)c3cccc(-c4cn[nH]c4)c3)c2cc1OC | 100% | 73% | 100% | 99% | 96% |  |  |  |
| COc1cc2ncnc(N[C@H](C)c3cccc4ccccc34)c2cc1OC | 92% | 100% | 81% | 99% | 88% | 92% | 95% | 95% |
